Assay results from ChEMBL document CHEMBL1142424, “Octanorcucurbitane and cucurbitane triterpenoids from the tubers of Hemsleya endecaphylla with HIV-1 inhibitory activity” (J Nat Prod, 2008).
≈ marks a conversion by molar mass, not a printed value.

How the values were obtained:
[1] = test system: Human immunodeficiency virus 1; assay: Antiviral activity against HIV1 in C8166 cells after 72 hrs; type: functional, organism-based; conditions: Human immunodeficiency virus 1, C8166, 72 h
[2] = Cytotoxicity against human C8166 cells by MTT method; type: cell-based
[3] = Selectivity index, ratio of CC50 for human C8166 cells to EC50 for HIV1; type: functional

For `CC(C)(O)/C=C/C[C@@](C)(O)[C@H]1[C@H](O)C[C@@]2(C)[C@@H]3CC=C4[C@@H](C[C@H](O)C(=O)C4(C)C)[C@]3(C)C(=O)C[C@]12C`, the EC50 [1] was 15.8 µg/mL (≈ 31.4 µM), the CC50 [2] was 121 µg/mL (≈ 241 µM) and the “Ratio CC50/EC50” value [3] was 7.7.
In the case of `CC(=O)OC(C)(C)CCC(=O)[C@](C)(O)[C@H]1[C@H](O)C[C@@]2(C)[C@@H]3CC=C4[C@@H](C=C(O)C(=O)C4(C)C)[C@]3(C)C(=O)C[C@]12C`, the EC50 [1] is reported as 2.4 µg/mL (≈ 4.3 µM), the CC50 [2] is reported as 21.6 µg/mL (≈ 38.7 µM) and the “Ratio CC50/EC50” value [3] is reported as 9.2.
In the case of `CC(C)(O)CCC(=O)[C@@](C)(O)[C@H]1[C@H](O)C[C@@]2(C)[C@@H]3CC=C4[C@@H](C[C@H](O)C(=O)C4(C)C)[C@]3(C)C(=O)C[C@]12C`, the EC50 [1] is reported as 0.13 µg/mL (≈ 0.251 µM), the CC50 [2] is reported as 6.5 µg/mL (≈ 12.5 µM) and the “Ratio CC50/EC50” value [3] is reported as 50.
With `CC(=O)OC(C)(C)CCC(=O)[C@](C)(O)[C@H]1[C@H](O)C[C@@]2(C)[C@@H]3CC=C4[C@@H](C[C@H](O)C(=O)C4(C)C)[C@]3(C)C(=O)C[C@]12C` [23,24-DIHYDROCUCURBITACIN B] the EC50 [1] was 4.2 µg/mL (≈ 7.49 µM), the CC50 [2] was 25.5 µg/mL (≈ 45.5 µM) and the “Ratio CC50/EC50” value [3] was 6.1.
For `CC(=O)OC(C)(C)/C=C/C(=O)[C@](C)(O)[C@H]1[C@H](O)C[C@@]2(C)[C@@H]3CC=C4[C@@H](C[C@H](O)C(=O)C4(C)C)[C@]3(C)C(=O)C[C@]12C` [CUCURBITACIN B], the CC50 [2] was 1.5 µg/mL (≈ 2.68 µM).
In the case of `CC(=O)OC(C)(C)/C=C/C(=O)[C@](C)(O)[C@H]1[C@H](O)C[C@@]2(C)[C@@H]3CC=C4[C@H](C[C@H](O)C(=O)C4(C)C)[C@]3(C)C(=O)C[C@]12C` [CUCURBITACIN B], the EC50 [1] is reported as 0.09 µg/mL (≈ 0.161 µM) and the “Ratio CC50/EC50” value [3] is reported as 16.7.
In the case of `CC(C)(O)/C=C/C(=O)[C@](C)(O)[C@H]1[C@H](O)C[C@@]2(C)[C@@H]3CC=C4[C@@H](C=C(O)C(=O)C4(C)C)[C@]3(C)C(=O)C[C@]12C` [CUCURBITACIN I], the EC50 [1] is reported as 0.7 µg/mL (≈ 1.36 µM), the CC50 [2] is reported as 14.4 µg/mL (≈ 28 µM) and the “Ratio CC50/EC50” value [3] is reported as 20.6.
With `CC1(C)C(=O)[C@@H](O)C[C@@H]2C1=CC[C@@H]1[C@@]2(C)C(=O)C[C@]2(C)CC(=O)C[C@@]12C` [ENDECAPHYLLACIN A] the EC50 [1] was 31.6 µg/mL (≈ 88.2 µM), the CC50 [2] was greater than 200 µg/mL and the “Ratio CC50/EC50” value [3] was greater than 6.3.
In the case of `CC1(C)C(=O)C(O)=C[C@@H]2C1=CC[C@@H]1[C@@]2(C)C(=O)C[C@]2(C)CC(=O)C[C@@]12C` [ENDECAPHYLLACIN B], the EC50 [1] is reported as 12 µg/mL (≈ 33.7 µM), the CC50 [2] is reported as 62 µg/mL (≈ 174 µM) and the “Ratio CC50/EC50” value [3] is reported as 5.
With `Cc1cn([C@H]2C[C@H](N=[N+]=[N-])[C@@H](CO)O2)c(=O)[nH]c1=O` [ZIDOVUDINE] the EC50 [1] was 0.0034 µg/mL (≈ 0.0127 µM), the CC50 [2] was greater than 200 µg/mL and the “Ratio CC50/EC50” value [3] was greater than 50000.
